What follows are compounds tested against FGFR2 (Homo sapiens, UniProt P21802) (assay: FGFR2 Kinase Protocol - Condition 2 (Reaction Biology HotSpot radiometric kinase assay, no preincubation)). Conditions: poly[Glu:Tyr] (4:1) 0.2 mg/ml, ATP 100 microM, 2 hr room temperature.
Format: biochemical
In short: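 Radiometric HotSpot format: FGFR2 (wildtype or V564F) with poly[Glu:Tyr] (4:1) at 0.2 mg/ml in HEPES pH 7.5 buffer with 1% DMSO; ATP plus [γ33P]ATP at 100 µM total, added without preincubation. Reactions ran 2 hr at room temperature, then filter-bound. IC50 from 10-dose, 3-fold series versus DMSO control.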

FGFR2, sequence (P21802 22-821): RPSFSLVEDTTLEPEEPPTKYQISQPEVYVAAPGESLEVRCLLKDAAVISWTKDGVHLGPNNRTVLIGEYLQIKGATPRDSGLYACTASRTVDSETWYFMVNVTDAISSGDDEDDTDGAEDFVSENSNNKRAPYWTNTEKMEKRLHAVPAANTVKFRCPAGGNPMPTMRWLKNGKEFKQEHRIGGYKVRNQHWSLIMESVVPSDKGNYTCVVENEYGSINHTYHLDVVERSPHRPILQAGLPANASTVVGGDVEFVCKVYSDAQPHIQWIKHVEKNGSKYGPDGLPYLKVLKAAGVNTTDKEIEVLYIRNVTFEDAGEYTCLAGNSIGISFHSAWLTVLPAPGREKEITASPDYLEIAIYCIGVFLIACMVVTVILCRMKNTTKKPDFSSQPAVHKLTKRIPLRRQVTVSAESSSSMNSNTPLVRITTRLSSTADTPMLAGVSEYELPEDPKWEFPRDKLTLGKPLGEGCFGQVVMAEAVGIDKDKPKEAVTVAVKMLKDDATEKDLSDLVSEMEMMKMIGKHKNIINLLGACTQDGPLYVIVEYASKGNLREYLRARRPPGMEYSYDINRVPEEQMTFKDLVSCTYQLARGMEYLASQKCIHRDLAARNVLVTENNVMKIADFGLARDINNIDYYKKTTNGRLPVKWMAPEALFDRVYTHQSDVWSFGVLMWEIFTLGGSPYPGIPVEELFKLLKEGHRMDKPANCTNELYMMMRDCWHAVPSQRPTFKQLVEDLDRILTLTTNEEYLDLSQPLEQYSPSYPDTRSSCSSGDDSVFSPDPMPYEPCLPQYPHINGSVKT

Compound | IC50
C=CC(=O)N1C[C@@H](n2nc(C#Cc3cc4ncn(C)c4cc3F)c3c(N)ncnc32)C[C@@H]1C [Example 151, 1-((2S,4S)-4-(4-amino-3-((1-methyl-6-fluoro-1H-benzo[d]imidazol-5-yl)ethynyl)-1H-pyrazolo[3,4-d]pyrimidin-1-yl)-2-methylpyrrolidin-1-yl)prop-2-en-1-one] | ≤ 100 nM
C=CC(=O)N1CC[C@H](n2nc(C#Cc3cc4ncn(CC)c4cc3F)c3c(N)ncnc32)C1 [Example 152, 1-[(3S)-3-{4-Amino-3-[2-(1-ethyl-6-fluoro-1,3-benzodiazol-5-yl)ethynyl]pyrazolo[3,4-d]pyrimidin-1-yl}pyrrolidin-1-yl]prop-2-en-1-one] | ≤ 100 nM
C=CC(=O)N1CC[C@H](n2nc(C#Cc3cc4ncn(CC)c4c(F)c3F)c3c(N)ncnc32)C1 [Example 153, 1-[(3S)-3-{4-Amino-3-[2-(1-ethyl-6,7-difluoro-1,3-benzodiazol-5-yl)ethynyl]pyrazolo[3,4-d]pyrimidin-1-yl}pyrrolidin-1-yl]prop-2-en-1-one] | ≤ 100 nM
C=CC(=O)N1CC[C@H](n2nc(C#Cc3cc4ncn(C)c4c(F)c3F)c3c(N)ncnc32)C1 [Example 154, 1-[(3S)-3-{4-Amino-3-[2-(6,7-difluoro-1-methyl-1,3-benzodiazol-5-yl)ethynyl]pyrazolo[3,4-d]pyrimidin-1-yl}pyrrolidin-1-yl]prop-2-en-1-one] | ≤ 100 nM
C=CC(=O)N1CC[C@H](n2nc(C#Cc3cc4ncn(CC)c4c(F)c3F)c3c(N)nccc32)C1 [Example 155, 1-[(3S)-3-{4-Amino-3-[2-(1-ethyl-6,7-difluoro-1,3-benzodiazol-5-yl)ethynyl]pyrazolo[4,3-c]pyridin-1-yl}pyrrolidin-1-yl]prop-2-en-1-one] | ≤ 100 nM
C=CC(=O)N1CC[C@H](n2nc(C#Cc3cc4ncn(C)c4c(F)c3F)c3c(N)nccc32)C1 [Example 156, 1-[(3S)-3-{4-Amino-3-[2-(6,7-difluoro-1-methyl-1,3-benzodiazol-5-yl)ethynyl]pyrazolo[4,3-c]pyridin-1-yl}pyrrolidin-1-yl]prop-2-en-1-one] | ≤ 100 nM
C=CC(=O)N1C[C@@H](n2nc(C#Cc3cc4ncn(CC)c4c(F)c3F)c3c(N)ncnc32)C[C@@H]1CC#N [Example 157, 2-[(2R,4S)-4-{4-Amino-3-[2-(1-ethyl-6,7-difluoro-1,3-benzodiazol-5-yl)ethynyl]pyrazolo[3,4-d]pyrimidin-1-yl}-1-(prop-2-enoyl)pyrrolidin-2-yl]acetonitrile] | ≤ 100 nM
C=CC(=O)N1C[C@@H](n2nc(C#Cc3cc4ncn(C)c4c(F)c3F)c3c(N)ncnc32)C[C@@H]1CC#N [Example 158, 2-[(2R,4S)-4-{4-Amino-3-[2-(6,7-difluoro-1-methyl-1,3-benzodiazol-5-yl)ethynyl]pyrazolo[3,4-d]pyrimidin-1-yl}-1-(prop-2-enoyl)pyrrolidin-2-yl]acetonitrile] | ≤ 100 nM
C=CC(=O)N1C[C@@H](n2nc(C#Cc3cc4ncn(C)c4c(F)c3F)c3c(N)nccc32)C[C@@H]1CC#N [Example 159, 2-((2R,4S)-1-Acryloyl-4-(4-amino-3-((6,7-difluoro-1-methyl-1H-benzo[d]imidazol-5-yl)ethynyl)-1H-pyrazolo[4,3-c]pyridin-1-yl)pyrrolidin-2-yl)acetonitrile] | ≤ 100 nM
C=CC(=O)N1C[C@@H](n2nc(C#Cc3cc4ncn(C)c4c(F)c3Cl)c3c(N)ncnc32)C[C@@H]1CC#N [Example 161, 2-[(2R,4S)-4-{4-Amino-3-[2-(6-chloro-7-fluoro-1-methyl-1,3-benzodiazol-5-yl)ethynyl]pyrazolo[3,4-d]pyrimidin-1-yl}-1-(prop-2-enoyl)pyrrolidin-2-yl]acetonitrile] | ≤ 100 nM
C=CC(=O)N1C[C@@H](n2nc(C#Cc3cc4ncn(CC)c4c(F)c3Cl)c3c(N)nccc32)C[C@@H]1CC#N [Example 162, 2-[(2R,4S)-4-{4-Amino-3-[2-(6-chloro-1-ethyl-7-fluoro-1,3-benzodiazol-5-yl)ethynyl]pyrazolo[4,3-c]pyridin-1-yl}-1-(prop-2-enoyl)pyrrolidin-2-yl]acetonitrile] | ≤ 100 nM
C=CC(=O)N1C[C@@H](n2nc(C#Cc3cc4ncn(C)c4cc3Cl)c3c(N)ncnc32)C[C@@H]1C [Example 164, 1-((2S,4S)-4-(4-amino-3-((6-chloro-1-methyl-1H-benzo[d]imidazol-5-yl)ethynyl)-1H-pyrazolo[3,4-d]pyrimidin-1-yl)-2-methylpyrrolidin-1-yl)prop-2-en-1-one] | ≤ 100 nM
C=CC(=O)N1C[C@@H](n2nc(C#Cc3cc4ncn(CC)c4cc3Cl)c3c(N)ncnc32)C[C@@H]1C [Example 168, 1-((2S,4S)-4-(4-amino-3-((1-ethyl-6-chloro-1H-benzo[d]imidazol-5-yl)ethynyl)-1H-pyrazolo[3,4-d]pyrimidin-1-yl)-2-methylpyrrolidin-1-yl)prop-2-en-1-one] | ≤ 100 nM
C=CC(=O)N1C[C@@H](n2nc(C#Cc3cc4ncn(CC)c4c(F)c3Cl)c3c(N)ncnc32)C[C@@H]1CC#N [Example 173, 2-[(2R,4S)-4-{4-Amino-3-[2-(6-chloro-1-ethyl-7-fluoro-1,3-benzodiazol-5-yl)ethynyl]pyrazolo[3,4-d]pyrimidin-1-yl}-1-(prop-2-enoyl)pyrrolidin-2-yl]acetonitrile] | ≤ 100 nM
C=CC(=O)N1C[C@@H](n2nc(C#Cc3cc4ncn(C)c4c(F)c3Cl)c3c(N)nccc32)C[C@@H]1CC#N [Example 174, 2-[(2R,4S)-4-{4-Amino-3-[2-(6-chloro-7-fluoro-1-methyl-1,3-benzodiazol-5-yl)ethynyl]pyrazolo[4,3-c]pyridin-1-yl}-1-(prop-2-enoyl)pyrrolidin-2-yl]acetonitrile] | ≤ 100 nM

Results, then the compound that gave them:

IC50 | Compound
≤ 100 nM | C=CC(=O)N1CC[C@H](n2nc(C#Cc3cc4ncn(CC)c4cc3F)c3c(N)nccc32)C1 [Example 150, 1-[(3S)-3-{4-Amino-3-[2-(1-ethyl-6-fluoro-1,3-benzodiazol-5-yl)ethynyl]pyrazolo[4,3-c]pyridin-1-yl}pyrrolidin-1-yl]prop-2-en-1-one]
≤ 100 nM | C=CC(=O)N1C[C@@H](n2nc(C#Cc3cc4ncn(CC)c4c(F)c3F)c3c(N)nccc32)C[C@@H]1CC#N [Example 160, 2-[(2R,4S)-4-{4-Amino-3-[2-(1-ethyl-6,7-difluoro-1,3-benzodiazol-5-yl)ethynyl]pyrazolo[4,3-c]pyridin-1-yl}-1-(prop-2-enoyl)pyrrolidin-2-yl]acetonitrile]
≤ 100 nM | C=CC(=O)N1C[C@@H](n2nc(C#Cc3cc4ncn(CC)c4cc3F)c3c(N)ncnc32)C[C@@H]1C [Example 163, 1-((2S,4S)-4-(4-amino-3-((1-ethyl-6-fluoro-1H-benzo[d]imidazol-5-yl)ethynyl)-1H-pyrazolo[3,4-d]pyrimidin-1-yl)-2-methylpyrrolidin-1-yl)prop-2-en-1-one]
≤ 100 nM | C=CC(=O)N1C[C@@H](n2nc(C#Cc3cc4ncn(C)c4cc3F)c3c(N)nccc32)C[C@@H]1C [Example 165, 1-((2S,4S)-4-(4-amino-3-((6-fluoro-1-methyl-1H-benzo[d]imidazol-5-yl)ethynyl)-1H-pyrazolo[4,3-c]pyridin-1-yl)-2-methylpyrrolidin-1-yl)prop-2-en-1-one]
≤ 100 nM | C=CC(=O)N1C[C@@H](n2nc(C#Cc3cc4ncn(CC)c4cc3F)c3c(N)nccc32)C[C@@H]1C [Example 166, 1-((2S,4S)-4-(4-amino-3-((1-ethyl-6-fluoro-1H-benzo[d]imidazol-5-yl)ethynyl)-1H-pyrazolo[4,3-c]pyridin-1-yl)-2-methylpyrrolidin-1-yl)prop-2-en-1-one]
≤ 100 nM | C=CC(=O)N1C[C@@H](n2nc(C#Cc3cc4ncn(C)c4cc3Cl)c3c(N)nccc32)C[C@@H]1C [Example 167, 1-((2S,4S)-4-(4-amino-3-((6-chloro-1-methyl-1H-benzo[d]imidazol-5-yl)ethynyl)-1H-pyrazolo[4,3-c]pyridin-1-yl)-2-methylpyrrolidin-1-yl)prop-2-en-1-one]
≤ 100 nM | C=CC(=O)N1C[C@@H](n2nc(C#Cc3cc4ncn(CC)c4cc3Cl)c3c(N)nccc32)C[C@@H]1C [Example 169, 1-((2S,4S)-4-(4-amino-3-((6-chloro-1-ethyl-1H-benzo[d]imidazol-5-yl)ethynyl)-1H-pyrazolo[4,3-c]pyridin-1-yl)-2-methylpyrrolidin-1-yl)prop-2-en-1-one]
≤ 100 nM | C=CC(=O)N1C[C@@H](n2nc(C#Cc3cc4ncn(CC)c4cc3F)c3c(N)ncnc32)C[C@@H]1C(F)F [Example 170, 1-((2R,4S)-4-(4-amino-3-((1-ethyl-6-fluoro-1H-benzo[d]imidazol-5-yl)ethynyl)-1H-pyrazolo[3,4-d]pyrimidin-1-yl)-2-(difluoromethyl)pyrrolidin-1-yl)prop-2-en-1-one]
≤ 100 nM | C=CC(=O)N1C[C@@H](n2nc(C#Cc3cc4ncn(CC)c4cc3F)c3c(N)nccc32)C[C@@H]1C(F)F [Example 171, 1-((2R,4S)-4-(4-amino-3-((1-ethyl-6-fluoro-1H-benzo[d]imidazol-5-yl)ethynyl)-1H-pyrazolo[4,3-c]pyridin-1-yl)-2-(difluoromethyl)pyrrolidin-1-yl)prop-2-en-1-one]
≤ 100 nM | C=CC(=O)N1C[C@@H](n2nc(C#Cc3cc4ncn(C)c4cc3Cl)c3c(N)nccc32)C[C@@H]1C(F)F [Example 172, 1-((2R,4S)-4-(4-amino-3-((6-chloro-1-methyl-1H-benzo[d]imidazol-5-yl)ethynyl)-1H-pyrazolo[4,3-c]pyridin-1-yl)-2-(difluoromethyl)pyrrolidin-1-yl)prop-2-en-1-one]
≤ 100 nM | C=CC(=O)N1C[C@@H](n2nc(C#Cc3cc4ncn(C)c4cc3F)c3c(N)ncnc32)C[C@@H]1C(F)F [Example 177, 1-((2R,4S)-4-(4-amino-3-((6-fluoro-1-methyl-1H-benzo[d]imidazol-5-yl)ethynyl)-1H-pyrazolo[3,4-d]pyrimidin-1-yl)-2-(difluoromethyl)pyrrolidin-1-yl)prop-2-en-1-one]

From patent publication US20230374015A1, “INHIBITORS OF FIBROBLAST GROWTH FACTOR RECEPTOR KINASES” (Kinnate Biopharma Inc., priority 2020, published 2023)
